Patent US7138361B2, “Herbicidal heterocycles” (E. I. du Pont de Nemours and Company, priority 2000, dated 2006)

What was measured:
Format in all cases: in vivo
[1] = test system: Surinam grass (Brachiaria decumbens); assay: Test B postemergence; details: 13 to 15 days
How it was run: (§1)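 Preemergence: seeds planted and treated with test chemicals in non-phytotoxic solvent with surfactant; postemergence on plants 2–18 cm (1- to 4-leaf stage). Kept in greenhouse 13–15 days, then visually rated against controls on a 0 (no effect) to 100 (complete control) scale.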

[2] = test system: barnyardgrass (Echinochloa crus-galli); assay: Test B postemergence; details: 13 to 15 days
How it was run: as §1

[3] = test system: blackgrass (Alopecurus myosuroides); assay: Test B postemergence; details: 13 to 15 days
How it was run: as §1

[4] = test system: cocklebur (Xanthium strumarium); assay: Test B postemergence; details: 13 to 15 days
How it was run: as §1

[5] = test system: corn (Zea mays); assay: Test B postemergence; details: 13 to 15 days
How it was run: as §1

[6] = test system: crabgrass (Digitaria sanguinalis); assay: Test B postemergence; details: 13 to 15 days
How it was run: as §1

[7] = test system: giant foxtail (Setaria faberii); assay: Test B postemergence; details: 13 to 15 days
How it was run: as §1

[8] = test system: lambsquarters (Chenopodium album); assay: Test B postemergence; details: 13 to 15 days
How it was run: as §1

[9] = test system: morning glory (Ipomoea hederacea); assay: Test B postemergence; details: 13 to 15 days
How it was run: as §1

[10] = test system: pigweed (Amaranthus retroflexus); assay: Test B postemergence; details: 13 to 15 days
How it was run: as §1

[11] = test system: velvetleaf (Abutilon theophrasti); assay: Test B postemergence; details: 13 to 15 days
How it was run: as §1

[12] = test system: wheat (Triticum aestivum); assay: Test B postemergence; details: 13 to 15 days
How it was run: as §1

[13] = test system: wild oat (Avena fatua); assay: Test B postemergence; details: 13 to 15 days
How it was run: as §1

[14] = test system: Surinam grass (Brachiaria decumbens); assay: Test B preemergence; details: scale 0 to 100, 0 no effect, 100 complete control
How it was run: as §1

[15] = test system: barnyardgrass (Echinochloa crus-galli); assay: Test B preemergence; details: scale 0 to 100, 0 no effect, 100 complete control
How it was run: as §1

[16] = test system: cocklebur (Xanthium strumarium); assay: Test B preemergence; details: scale 0 to 100, 0 no effect, 100 complete control
How it was run: as §1

[17] = test system: corn (Zea mays); assay: Test B preemergence; details: scale 0 to 100, 0 no effect, 100 complete control
How it was run: as §1

[18] = test system: crabgrass (Digitaria sanguinalis); assay: Test B preemergence; details: scale 0 to 100, 0 no effect, 100 complete control
How it was run: as §1

[19] = test system: giant foxtail (Setaria faberii); assay: Test B preemergence; details: scale 0 to 100, 0 no effect, 100 complete control
How it was run: as §1

[20] = test system: lambsquarters (Chenopodium album); assay: Test B preemergence; details: scale 0 to 100, 0 no effect, 100 complete control
How it was run: as §1

[21] = test system: morning glory (Ipomoea hederacea); assay: Test B preemergence; details: Preemergence, Rate 500 g/ha; scale 0 to 100, 0 no effect, 100 complete control
How it was run: as §1

[22] = test system: pigweed (Amaranthus retroflexus); assay: Test B preemergence; details: Preemergence, Rate 500 g/ha; scale 0 to 100, 0 no effect, 100 complete control
How it was run: as §1

[23] = test system: rice (Oryza saliva); assay: Test B preemergence; details: Preemergence, Rate 500 g/ha; scale 0 to 100, 0 no effect, 100 complete control
How it was run: as §1

[24] = test system: velvetleaf (Abutilon theophrasti); assay: Test B preemergence; details: Preemergence, Rate 500 g/ha; scale 0 to 100, 0 no effect, 100 complete control
How it was run: as §1

[25] = test system: barnyardgrass (Echinochloa crus-galli); assay: Test B flooded paddy test; details: Rate 1000 g/ha, scale of 0 to 100 where 0 is no effect and 100 is complete control, visually evaluated after 13 to 15 days
How it was run: (§2)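 Rice, smallflower flatsedge, duck salad and barnyardgrass grown to 2-leaf stage in flooded paddy and treated with test chemicals. Plants kept in greenhouse 13 to 15 days, then visually rated against controls. Scale 0 (no effect) to 100 (complete control).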

[26] = test system: duck salad (Heteranthera limosa); assay: Test B flooded paddy test; details: Rate 1000 g/ha, scale of 0 to 100 where 0 is no effect and 100 is complete control, visually evaluated after 13 to 15 days
How it was run: as §2

[27] = test system: rice (Oryza saliva); assay: Test B flooded paddy test; details: Rate 1000 g/ha, scale of 0 to 100 where 0 is no effect and 100 is complete control, visually evaluated after 13 to 15 days
How it was run: as §2

[28] = test system: smallflower flatsedge (Cyperus difformis); assay: Test B flooded paddy test; details: Rate 1000 g/ha, scale of 0 to 100 where 0 is no effect and 100 is complete control, visually evaluated after 13 to 15 days
How it was run: as §2

[29] = Rate 125 g/ha, scale 0 (no effect) to 100 (complete control)
[30] = Rate 500 g/ha, scale 0 to 100, 0 is no effect, 100 is complete control

## Cc1ccc(N2CCC(n3ccc(C(C)(C)C)n3)C2=O)cc1Cl (centres unmarked) [Compound 41]
[1]; [29]
  Plant response rating, Surinam grass: 0
[1]; [30]
  Plant response rating, Surinam grass: 0
[2]; [29]
  Plant response rating, Barnyardgrass: 0
[2]; [30]
  Plant response rating, Barnyardgrass: 70
[3]; [29]
  Plant response rating, Blackgrass: 0
[3]; [30]
  Plant response rating, Blackgrass: 0
[4]; [29]
  Plant response rating, Cocklebur: 0
[4]; [30]
  Plant response rating, Cocklebur: 0
[5]; [30]
  Plant response rating, Corn: 0
[6]; [29]
  Plant response rating, Crabgrass: 0
[6]; [30]
  Plant response rating, Crabgrass: 40
[7]; [29]
  Plant response rating, Foxtail, Giant: 0
[7]; [30]
  Plant response rating, Foxtail, Giant: 0
[8]; [29]
  Plant response rating, Lambsquarters: 0
[8]; [30]
  Plant response rating, Lambsquarters: 60
[9]; [29]
  Plant response rating, Morningglory: 0
[9]; [30]
  Plant response rating, Morningglory: 20
[10]; [29]
  Plant response rating, Pigweed: 0
[10]; [30]
  Plant response rating, Pigweed: 80
[11]; [29]
  Plant response rating, Velvetleaf: 0
[11]; [30]
  Plant response rating, Velvetleaf: 0
[12]; [29]
  Plant response rating, Wheat: 0
[12]; [30]
  Plant response rating, Wheat: 0
[13]; [29]
  Plant response rating, Wild Oat: 0
[13]; [30]
  Plant response rating, Wild Oat: 0
[14]; Preemergence, Rate 500 g/ha
  Plant response rating, Surinam grass: 0
[14]; preemergence, Rate 125 g/ha
  Plant response rating, Surinam grass: 0
[15]; Preemergence, Rate 500 g/ha
  Plant response rating, Barnyardgrass: 100
[15]; preemergence, Rate 125 g/ha
  Plant response rating, Barnyardgrass: 40
[16]; Preemergence, Rate 500 g/ha
  Plant response rating, Cocklebur: 0
[16]; preemergence, Rate 125 g/ha
  Plant response rating, Cocklebur: 0
[17]; Preemergence, Rate 500 g/ha
  Plant response rating, Corn: 0
[17]; preemergence, Rate 125 g/ha
  Plant response rating, Corn: 0
[18]; Preemergence, Rate 500 g/ha
  Plant response rating, Crabgrass: 0
[18]; preemergence, Rate 125 g/ha
  Plant response rating, Crabgrass: 0
[19]; Preemergence, Rate 500 g/ha
  Plant response rating, Foxtail, Giant: 60
[19]; preemergence, Rate 125 g/ha
  Plant response rating, Foxtail, Giant: 0
[20]; Preemergence, Rate 500 g/ha
  Plant response rating, Lambsquarters: 100
[20]; preemergence, Rate 125 g/ha
  Plant response rating, Lambsquarters: 100
[21]
  Plant response rating, Morningglory: 0
[22]
  Plant response rating, Pigweed: 100
[23]
  Plant response rating, Rice: 0
[24]
  Plant response rating, Velvetleaf: 0
[25]
  Plant response rating, Barnyardgrass: 70
[26]
  Plant response rating, Ducksalad: 70
[27]
  Plant response rating, Rice: 40
[28]
  Plant response rating, Flatsedge: 100

## CC(C)(C)c1ccn(C2C(=O)N(c3cccc(C(F)(F)F)c3)C[S+]2[O-])n1 (centres unmarked) [Compound 29]
[1]; [29]
  Plant response rating, Surinam grass: 0
[1]; [30]
  Plant response rating, Surinam grass: 0
[2]; [29]
  Plant response rating, Barnyardgrass: 0
[2]; [30]
  Plant response rating, Barnyardgrass: 0
[3]; [29]
  Plant response rating, Blackgrass: 0
[3]; [30]
  Plant response rating, Blackgrass: 0
[4]; [29]
  Plant response rating, Cocklebur: 0
[4]; [30]
  Plant response rating, Cocklebur: 0
[5]; [29]
  Plant response rating, Corn: 0
[5]; [30]
  Plant response rating, Corn: 0
[6]; [29]
  Plant response rating, Crabgrass: 0
[6]; [30]
  Plant response rating, Crabgrass: 50
[7]; [29]
  Plant response rating, Foxtail, Giant: 0
[7]; [30]
  Plant response rating, Foxtail, Giant: 0
[8]; [29]
  Plant response rating, Lambsquarters: 0
[8]; [30]
  Plant response rating, Lambsquarters: 20
[9]; [29]
  Plant response rating, Morningglory: 0
[9]; [30]
  Plant response rating, Morningglory: 0
[10]; [29]
  Plant response rating, Pigweed: 30
[10]; [30]
  Plant response rating, Pigweed: 30
[11]; [29]
  Plant response rating, Velvetleaf: 0
[11]; [30]
  Plant response rating, Velvetleaf: 20
[12]; [29]
  Plant response rating, Wheat: 0
[12]; [30]
  Plant response rating, Wheat: 0
[13]; [29]
  Plant response rating, Wild Oat: 0
[13]; [30]
  Plant response rating, Wild Oat: 0
[14]; Preemergence, Rate 500 g/ha
  Plant response rating, Surinam grass: 0
[14]; preemergence, Rate 125 g/ha
  Plant response rating, Surinam grass: 0
[15]; Preemergence, Rate 500 g/ha
  Plant response rating, Barnyardgrass: 20
[15]; preemergence, Rate 125 g/ha
  Plant response rating, Barnyardgrass: 0
[16]; Preemergence, Rate 500 g/ha
  Plant response rating, Cocklebur: 0
[16]; preemergence, Rate 125 g/ha
  Plant response rating, Cocklebur: 0
[17]; Preemergence, Rate 500 g/ha
  Plant response rating, Corn: 0
[17]; preemergence, Rate 125 g/ha
  Plant response rating, Corn: 0
[18]; Preemergence, Rate 500 g/ha
  Plant response rating, Crabgrass: 0
[18]; preemergence, Rate 125 g/ha
  Plant response rating, Crabgrass: 0
[19]; Preemergence, Rate 500 g/ha
  Plant response rating, Foxtail, Giant: 0
[19]; preemergence, Rate 125 g/ha
  Plant response rating, Foxtail, Giant: 0
[20]; Preemergence, Rate 500 g/ha
  Plant response rating, Lambsquarters: 100
[20]; preemergence, Rate 125 g/ha
  Plant response rating, Lambsquarters: 0
[21]
  Plant response rating, Morningglory: 30
[22]
  Plant response rating, Pigweed: 70
[23]
  Plant response rating, Rice: 0
[24]
  Plant response rating, Velvetleaf: 20
[25]
  Plant response rating, Barnyardgrass: 0
[26]
  Plant response rating, Ducksalad: 0
[27]
  Plant response rating, Rice: 0
[28]
  Plant response rating, Flatsedge: 30
